Test results published in article PMC8739290, “A phase 1b study of erlotinib and momelotinib for the treatment of EGFR-mutated, tyrosine kinase inhibitor-naive metastatic non-small cell lung cancer” (Cancer Chemotherapy and Pharmacology, 2021).
Read-outs that look alike come from different tables or passages of the source.

Assays:
[1] = system: pancreatic adenocarcinoma; parameters: method as in PMID 30105668; conditions: momelotinib added to nab-paclitaxel and gemcitabine; cited from earlier work
[2] = system: patients with KRAS-mutated NSCLC; parameters: method as in PMID 30087028; conditions: cited from earlier work
[3] = system: patients with EGFR TKI-naive, EGFR-mutated NSCLC; test: Safety in phase 1b dose-escalation study: DLTs and adverse events (CTCAE version 4.03)
From the text: This was an open-label, dose-escalation phase 1b study, which comprised a dose-escalation phase, followed by a planned, randomized, expansion phase of the combination of erlotinib plus momelotinib vs. erlotinib alone (ClinicalTrials.gov Identifier: NCT02206763). An erlotinib lead-in was utilized during the dose-escalation phase since erlotinib’s toxicities of rash and diarrhea onset in the first 2–3 weeks of treatment allowing for (i) dose adjustment for erlotinib-related toxicities as per clinical standard of care prior to combination with momelotinib; (ii) examination of the impact of momelotinib on erlotinib steady-state pharmacokinetics; and (iii) accurate assessment of toxicity attribution during the combination treatment period.
Patients were screened within 28 days of the start of study treatment and cycles were defined as 28 days. Erlotinib was self-administered orally once daily (QD) at least 1 h before or 2 h after a meal, with doses permitted at 50, 75, 100, or 150 mg. Dose reductions were permitted for management of erlotinib-related toxicity such as rash and diarrhea. Momelotinib was dose escalated following a standard 3 + 3 design starting at 100 mg QD (Table 1). Momelotinib was self-administered orally QD or twice daily (BID) (Table 1), with the latter planned dosing frequency differing from that used in myelofibrosis trials. Study treatment continued until disease progression, unacceptable toxicity, or consent withdrawal.
The primary endpoint was the incidence of dose-limiting toxicities (DLTs). Physical exams and safety labs were performed on day 1 of cycle 1, day 15 of cycle 1, and on the first day of each cycle thereafter. Adverse events (AEs) were coded using the Medical Dictionary for Regulatory Activities (MedDRA), graded according to the Common Terminology Criteria for Adverse Events (CTCAE) version 4.03, and collected until 30 days after the last dose of the study treatment.
DLTs were assessed during the first 28 days of combined erlotinib and momelotinib treatment and defined as clinically significant AEs related to study treatment. Prespecified hematologic DLTs only included grade 4 neutropenia (absolute neutrophil count [ANC] < 500/μL) and grade 4 thrombocytopenia (platelet count < 25,000/μL). Important exceptions for related grade 3 nonhematologic toxicities included grade 3 nausea or vomiting ≤ 48 h duration, diarrhea or rash that improved to grade 0 to 1 within 21 days of interruption of erlotinib, and alanine aminotransferase (ALT) or aspartate aminotransferase (AST) ≥ 5 times the upper limit of normal (ULN) that improved to ≤ 3 times the ULN within 21 days. Treatment delays of ≥ 28 days due to a treatment-emergent AEs (TEAEs) were also considered DLTs.
(§1) Any patient who received ≥ 1 dose of study drug was included in the safety and efficacy analyses. Descriptive statistics were used to summarize study characteristics, DLTs, and AEs, including by dose level. ORR was summarized with corresponding two-sided 90% exact confidence intervals (CIs) using the binomial distribution. Both OS and PFS were summarized using Kaplan–Meier estimates and corresponding 90% CIs. Patient concentration data and PK parameters for erlotinib, momelotinib, and its major metabolite GS-644603 were summarized by dose level using descriptive statistics.

[4] = system: pSTAT3 in IL-6–stimulated lymphocytes; test: pSTAT3 phospho-flow cytometry on whole blood of patients after 2 weeks on momelotinib (exploratory); type: cell-based, human; conditions: whole blood of 8 patients, data not shown
[5] = Pharmacokinetics of erlotinib during monotherapy and in combination with momelotinib (LC–MS/MS); type: in vivo, human; conditions: for Cmax: mean (%CV)
Protocol: (§2) Prior to momelotinib dosing, blood samples were collected before a dose of erlotinib and at 0.5, 1, 2, 4, 6, 8, and 24 h after erlotinib dosing. On day 15 of cycle 1, blood samples were collected at the same time points after dosing with momelotinib and erlotinib (the 24-h time point was only applicable for momelotinib QD dosing). The concentrations of momelotinib and its major metabolite GS-644603 were evaluated using a liquid chromatography-tandem mass spectrometry (LC–MS/MS) assay with solid phase extraction validated over the range of 0.5–1000 ng/mL for each analyte. The concentration of erlotinib was determined using an LC–MS/MS assay with protein precipitation validated over the range of 5–5000 ng/mL. […] Pharmacokinetic (PK) parameters were estimated using standard noncompartmental methods with Phoenix WinNonlin® software (Certara, Princeton, NJ).
as §1

[6] = Steady-state pharmacokinetics of momelotinib and metabolite GS-644603 (LC–MS/MS, noncompartmental); type: in vivo, human; conditions: for half-life / Cmax / Tmax: day 15 of cycle 1; for half-life / Tmax: median (Q1, Q3); for Cmax: mean (%CV)
Protocol: as §2, §1

[7] = system: EGFR-mutated NSCLC; test: Efficacy in phase 1b study per RECIST version 1.1 (ORR, DoR, PFS, OS); type: in vivo, human
Protocol: Imaging by computed tomography (CT) with contrast was performed at baseline, every 8 weeks during year 1 and every 12 weeks thereafter. If a patient had brain metastases, brain magnetic resonance imaging (MRI) was repeated on the same schedule.

[8] = system: JAK1/2-mediated STAT3 phosphorylation in IL-6–stimulated human peripheral blood mononuclear cells; conditions: read-out: mean half maximal effective concentration, inhibition of JAK1/2-mediated STAT3 phosphorylation; cited from earlier work
[9] = system: STAT3 signaling in EGFR-mutant cell lines; parameters: method as in PMID 25065853, PMID 22712764; conditions: via autocrine- and paracrine-secreted factors such as IL-6; cited from earlier work
[10] = system: aldehyde oxidase; parameters: method as in PMID 32393528; conditions: cited from earlier work
[11] = system: patients with EGFR-mutated NSCLC; conditions: erlotinib monotherapy, cited from earlier work
[12] = system: HCC-827 xenograft models; parameters: method as in PMID 22319590; conditions: cited from earlier work
[13] = system: colony formation in soft agar assays; parameters: method as in PMID 22319590; conditions: cited from earlier work
[14] = system: HCC4006 xenograft model; parameters: method as in PMID 25065853; conditions: ruxolitinib plus erlotinib; cited from earlier work
[15] = system: patients who had progressed on at least 1 first-generation EGFR TKI; parameters: method as in PMID 31319994; conditions: ruxolitinib in combination with afatinib, cited from earlier work
[16] = system: patients with documented progression on erlotinib; parameters: method as in PMID 27613527; conditions: ruxolitinib in combination with erlotinib, cited from earlier work
[17] = human, in vivo, oral, momelotinib analyte, momelotinib 100 mg QD + erlotinib, n = 2
[18] = human, in vivo, oral, momelotinib analyte, momelotinib 200 mg QD + erlotinib, n = 2
[19] = momelotinib 200 mg QD vs 100 mg QD, with erlotinib, momelotinib analyte
[20] = with erlotinib, compared with ref 35
[21] = erlotinib + momelotinib, all dose levels, n = 11
[22] = randomized phase 3 study, ref 33

## N#CCNC(=O)c1ccc(-c2ccnc(Nc3ccc(N4CCOCC4)cc3)n2)cc1 [momelotinib]
[1]
  efficacy vs historical control chemotherapy: did not improve efficacy
[2]; momelotinib added to trametinib, KRAS-mutated NSCLC
  efficacy vs historical control trametinib monotherapy: did not improve efficacy
[2]; momelotinib dosed up to 150 mg BID in combination with trametinib
  neutropenia: no neutropenia event
[3]; 1 year after start of momelotinib + erlotinib, led to discontinuation of both
  grade 1 reactivation of hepatitis B: 1 patient
[3]; all dose levels, momelotinib + erlotinib
  treatment-related deaths: no treatment-related deaths observed
[3]; human, in vivo
  dose interruptions of momelotinib: 5 n
  dose reductions of momelotinib (due to AEs): 2 n
  patients who discontinued momelotinib for AEs: 27.3%
[3]; in combination with standard dosing of erlotinib, 3 + 3 design, DLTs in first 28 days
  maximum tolerated dose (MTD) of momelotinib: 200 mg QD
[4]; after 2 weeks on treatment
  pSTAT3 inhibition in IL-6–stimulated lymphocytes: temporarily inhibited pSTAT3 shortly after dosing
[4]
  correlation between total plasma momelotinib concentration and pSTAT3 inhibition: no correlation
[5]; momelotinib 100 mg QD, 200 mg QD, 100 mg BID
  impact of momelotinib on the PK of erlotinib: no impact
[6]; human, blood, oral, momelotinib analyte, momelotinib 100 mg BID + erlotinib, n = 4
  half-life: 8.6 h
[6]; human, in vivo, oral, momelotinib analyte, momelotinib 100 mg BID + erlotinib, n = 4
  Cmax: 884 ng/mL
[6]; [17]
  Cmax: 528 ng/mL
  half-life: 11.8 h
[6]; [18]
  Cmax: 852 ng/mL
  half-life: 10.2 h
[6]; human, in vivo, oral, momelotinib analyte, momelotinib 200 mg QD + erlotinib, n = 2, read-out: Tmax
  Tmax: 1.5 h
[6]; [19]
  dose proportionality of Cmax: slightly less than dose-proportional increase
  dose proportionality of exposure (AUCtau): slightly more than dose-proportional increase
[6]; momelotinib analyte, momelotinib 100 mg BID + erlotinib, n = 4
  Tmax: 1.0 (1.0, 1.5) h
[6]; momelotinib analyte, momelotinib 100 mg QD + erlotinib, n = 2
  Tmax: 1.0 (1.0, 1.0) h
[6]; steady state, day 15 of cycle 1, with erlotinib
  time to momelotinib peak concentration after dosing: 1 to 2 h
[6]; [20]
  momelotinib maximum concentration and exposure compared with earlier reports: higher than previously reported
  momelotinib terminal elimination half-life compared with earlier reports: prolonged
[7]; momelotinib + erlotinib, across dose levels
  reductions from baseline in sum of diameters of target lesions, range: 23.1 to 71.7%
[7]; momelotinib + erlotinib, across dose levels, N = 11
  mean best percentage change in the sum of diameters of target lesions: −42.5 ± 17.1%
[7]; momelotinib + erlotinib, all dose levels, 6 of 11 patients, 90% CI 27.1–80.0
  overall response rate (ORR), confirmed, all partial: 54.5%
[7]; momelotinib + erlotinib, 1 patient, dose level 2B
  progressive disease (PD) as best response: 9.1%
[7]; momelotinib + erlotinib, 4 of 11 patients
  stable disease: 36.4%
[7]; momelotinib + erlotinib, 90% CI 4.4–9.6
  median duration of response (DoR): 7.2 months
[7]; momelotinib + erlotinib, Kaplan–Meier, 90% CI 6.2–12.4
  median PFS: 9.2 months
[7]; momelotinib + erlotinib, data finalization April 24, 2017
  median OS: not reached
[7]; patient at dose level 2B, momelotinib 100 mg BID + erlotinib
  longest DoR: 11.2 months
[8]
  EC50: 259 nM

## C#Cc1cccc(Nc2ncnc3cc(OCCOC)c(OCCOC)cc23)c1 [erlotinib]
[3]; 2 of 11 patients: grade 4 neutropenia, grade 1 hepatitis B
  patients who discontinued erlotinib due to AEs: 18.2%
[3]; across all dose levels, with momelotinib
  patients with dose reductions of erlotinib (all for AEs): 4 patients
[3]; [21]
  diarrhea considered related to erlotinib: 63.6%
  dry skin considered related to erlotinib: 54.5%
  paronychia considered related to erlotinib: 54.5%
[9]
  effect on STAT3 signaling: induce feedback activation of STAT3 signaling
[10]
  inhibition of aldehyde oxidase: potent inhibitor
[5]; day 1 of cycle 1 vs day 15 of cycle 1 with momelotinib, all momelotinib dose level groups
  erlotinib exposure (Cmax and AUCtau), monotherapy vs combination: comparable
[5]; erlotinib monotherapy, Day 1, dose level 2A cohort, erlotinib 150 mg QD, n = 3
  Cmax: 2040.0 (42.5) ng/mL
[5]; erlotinib with momelotinib 100 mg BID, Day 15, erlotinib 150 mg QD, n = 5
  Cmax: 1782.0 (17.3) ng/mL
[5]; erlotinib with momelotinib 200 mg QD, Day 15, erlotinib 150 mg QD, n = 2
  Cmax: 1740.0 (17.9) ng/mL
[5]; human, in vivo, oral, erlotinib monotherapy, Day 1, dose level 1 cohort, erlotinib 150 mg QD (1 patient 100 mg QD), n = 3, read-out: Cmax
  Cmax: 1810 ng/mL
[11]; randomized phase 3 study, ref 2
  neutropenia rate: 0%
[11]; [22]
  decreased neutrophils rate: 1.8%
  neutropenia rate: 4.5%
[11]; randomized phase 3 study, ref 34
  neutropenia rate: 6%
[11]
  ANCs less than < 1000/mm^3 (grade 3 or greater): rarely observed
  ORR, range over prior studies: 62.7 to 83%
  median PFS, range over prior studies: 9.7 to 11 months

## N#CC[C@H](C1CCCC1)n1cc(-c2ncnc3[nH]ccc23)cn1 [ruxolitinib]
[12]
  tumor growth: slowed tumor growth
[13]
  colony formation: decreased colony formation
[14]
  combination activity compared to EGFR inhibition alone: synergistic activity
[15]; patients with EGFR T790M, 5 of 20
  objective response: 25%
[15]; patients with EGFR T790M, 95% CI 2.5–7.3
  median PFS: 4.9 months
[15]; patients without EGFR T790M, 2 of 10
  objective response: 20%
[15]; patients without EGFR T790M, 95% CI 0.0–8.8
  median PFS: 3.1 months
[16]; 1 of 22 patients
  objective response: 5%
[16]; 95% CI 1.5–4.1
  median PFS: 2.2 months
